Reference: US20150065466A1, “NOVEL DXR INHIBITORS FOR ANTIMICROBIAL THERAPY” (priority 2012, published 2015)
Read-outs that look alike come from different tables or passages of the source.

Experiments:
EcDXR [1] = target: T1, EcDXR (Escherichia coli, UniProt P45568); assay: recombinant EcDXR enzyme inhibition; assay type: biochemical, E. coli
PfDXR [2] = target: T2, PfDXR (Plasmodium falciparum, UniProt Q8IKG4); assay: recombinant PfDXR enzyme inhibition; assay type: biochemical, P. falciparum
T2 sequence (Q8IKG4 75-488): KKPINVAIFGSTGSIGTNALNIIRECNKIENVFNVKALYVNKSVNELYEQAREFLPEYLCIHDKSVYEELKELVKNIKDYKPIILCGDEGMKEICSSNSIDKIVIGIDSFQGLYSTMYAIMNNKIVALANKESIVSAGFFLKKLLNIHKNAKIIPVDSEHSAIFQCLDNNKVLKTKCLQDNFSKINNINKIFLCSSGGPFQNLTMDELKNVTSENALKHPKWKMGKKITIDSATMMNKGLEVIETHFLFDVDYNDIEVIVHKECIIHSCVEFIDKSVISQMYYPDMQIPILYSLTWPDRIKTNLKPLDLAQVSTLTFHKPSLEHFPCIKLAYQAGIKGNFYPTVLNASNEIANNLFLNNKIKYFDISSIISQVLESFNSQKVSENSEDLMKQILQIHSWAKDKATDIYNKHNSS

P. falciparum 3D7 strain = assay: P. falciparum proliferation, DAPI fluorescence assay, 3D7 strain; assay type: cell-based; details: read-out: IC50 against P. falciparum proliferation, 3D7 strain
P. falciparum Dd2 strain = assay: P. falciparum proliferation, DAPI fluorescence assay, Dd2 strain; assay type: cell-based; details: read-out: IC50 against P. falciparum proliferation, Dd2 strain
WI-38 (fibroblast) = assay: cytotoxicity, MTS assay, WI-38; assay type: cell-based, human; details: at 300 μM, 48 h
Protocol: PfDXR inhibitors SYC-466, -467, -408, -409 were tested against three non-cancerous human cell lines, i.e., WI-38 (fibroblast), HEK293 (kidney) and Beas2B (lung epithelial), to evaluate the potential toxicity of these compounds, using an assay routinely perform (41). 1×10^5 cells are inoculated into each well of a 96-well plate and cultured in Dulbecco's Modified Eagle's Medium (DMEM) supplemented with 10% fetal bovine serum at 37° C. in a 5% CO2 atmosphere with 100% humidity overnight for cell attachment. After addition of compounds (from 0.1-300 μM), plates are incubated for 48 h after which cell viability are assessed by the [3-(4,5-dimethylthiazol-2-yl)-5-(3-carboxymethoxyphenyl)-2-(4-sulfophenyl)-2H-tetrazolium, inner salt (MTS) assay, using a commercially available kit (Promega). IC50s of each compound can be calculated from dose response curves.

Hela = assay: cytotoxicity, MTS assay, Hela; assay type: cell-based, human; details: at 300 μM, 48 h
A549 = assay: cytotoxicity, MTS assay, A549; assay type: cell-based, human; details: at 300 μM, 48 h
TgDXR = TgDXR (Toxoplasma gondii, UniProt S8ESX0); assay type: biochemical, T. gondii
Sequence of TgDXR (S8ESX0 entry or part of it): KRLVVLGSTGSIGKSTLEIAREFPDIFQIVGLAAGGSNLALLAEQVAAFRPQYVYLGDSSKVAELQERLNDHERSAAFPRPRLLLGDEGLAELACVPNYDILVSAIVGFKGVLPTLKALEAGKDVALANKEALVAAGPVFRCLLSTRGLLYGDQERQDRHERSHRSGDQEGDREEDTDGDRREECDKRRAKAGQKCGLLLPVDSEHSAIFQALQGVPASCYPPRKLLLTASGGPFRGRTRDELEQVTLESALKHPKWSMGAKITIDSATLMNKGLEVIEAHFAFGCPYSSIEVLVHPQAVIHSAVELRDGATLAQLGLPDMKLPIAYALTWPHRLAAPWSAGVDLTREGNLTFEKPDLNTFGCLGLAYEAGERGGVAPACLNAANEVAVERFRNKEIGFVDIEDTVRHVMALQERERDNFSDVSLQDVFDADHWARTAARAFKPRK

EcDXR [3] = target: T1, EcDXR; details: cited from earlier work
PfDXR [4] = target: T2, PfDXR; details: Table 2, data from literature (footnote a); cited from earlier work
P. aeruginosa isolates = details: Neu and Kamimura, 1981; cited from earlier work
T. gondii = details: study from the Moreno group; cited from earlier work
[5] = test system: T. gondii engineered to express the bacterial GlpT; details: Nair et al., 2011; cited from earlier work
[6] = cited from earlier work; for half life in plasma: human plasma, patients; for oral availability: human, in vivo
[7] = read-out: Ki against recombinant EcDXR
[8] = Table 1, read-out: Enzyme Ki PfDXR
[9] = 3D7 (chloroquine sensitive), erythrocyte stage, 3 days
[10] = Dd2 (multidrug resistant), erythrocyte stage, 3 days
[11] = 100 nM TgDXR, 4 mM MgCl2, 100 μM DXP, pH 7.6, read-out: Ki TgDXR
[12] = Plasmodium falciparum, 3D7, Erythrocyte, 72 h
[13] = Plasmodium falciparum, DD2, Erythrocyte, 72 h

T1 sequence (P45568 whole entry): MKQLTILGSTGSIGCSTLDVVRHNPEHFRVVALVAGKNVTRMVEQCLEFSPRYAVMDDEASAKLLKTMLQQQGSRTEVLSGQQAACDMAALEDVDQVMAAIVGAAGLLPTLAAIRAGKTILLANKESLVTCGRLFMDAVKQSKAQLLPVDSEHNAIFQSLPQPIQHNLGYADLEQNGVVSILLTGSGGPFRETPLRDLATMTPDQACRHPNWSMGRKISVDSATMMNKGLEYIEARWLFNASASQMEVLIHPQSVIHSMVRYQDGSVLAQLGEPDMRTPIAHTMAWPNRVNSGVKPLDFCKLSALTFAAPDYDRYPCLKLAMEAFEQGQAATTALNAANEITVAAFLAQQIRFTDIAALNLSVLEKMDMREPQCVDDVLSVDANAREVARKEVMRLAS

Molecule	cytotoxicity against growth of WI-38 cells (WI-38 (fibroblast))	cytotoxicity against growth of Hela cells (Hela)	cytotoxicity against growth of A549 cells (A549)	Ki (TgDXR; [11])	Ki (TgDXR; read-out: Ki against TgDXR)	Ki (EcDXR [3])	Ki (PfDXR [4])	also measured
O=CN(O)CCC(c1ccncc1)P(=O)(O)O (stereo not drawn) [SYC-467]	essentially no cytotoxicity	essentially no cytotoxicity	essentially no cytotoxicity	79 nM	79 nM	35 nM		Ki (EcDXR [1]; [7]): 35 nM; Ki (PfDXR [2]; [8]): 8.9 nM; IC50 (P. falciparum 3D7 strain; [9]): 180 nM; IC50 (P. falciparum Dd2 strain; [10]): 170 nM
O=CN(O)CCC(c1ccc(Cl)c(Cl)c1)P(=O)(O)O (stereo not drawn) [Compound 10]				77 nM	77 nM	58 nM	15 nM	
CCN(CC)CCCC(C)Nc1ccnc2cc(Cl)ccc12 (stereo not drawn) [chloroquinone, reference compound]								IC50 (P. falciparum 3D7 strain; Plasmodium falciparum, 72 h, 3D7 (chloroquine sensitive), erythrocyte stage, 3 days): 28 nM; IC50 (P. falciparum Dd2 strain; Plasmodium falciparum, 72 h, Dd2 (multidrug resistant), erythrocyte stage, 3 days): 111 nM
CC(=O)N(O)CCC(c1cccnc1)P(=O)(O)O (stereo not drawn) [SYC-408]	essentially no cytotoxicity	essentially no cytotoxicity	essentially no cytotoxicity	970 nM		42 nM		Ki (EcDXR [1]; [7]): 42 nM; Ki (PfDXR [2]; listed as 5a, read-out: Ki against PfDXR): 1.9 nM; fold more active than fosmidomycin against PfDXR (PfDXR [2]; ratio of Ki values): ~10 fold; IC50 (P. falciparum 3D7 strain; [9]): 440 nM; IC50 (P. falciparum Dd2 strain; [10]): 310 nM
O=CN(O)CCC(c1cccnc1)P(=O)(O)O (stereo not drawn) [SYC-466]	essentially no cytotoxicity	essentially no cytotoxicity	essentially no cytotoxicity		55 nM		13 nM	Ki (EcDXR [1]; Table 1, read-out: Enzyme Ki EcDXR): 87 nM; Ki (PfDXR [2]): 13 nM; IC50 (P. falciparum 3D7 strain; [12]): 340 nM; IC50 (P. falciparum Dd2 strain; [13]): 180 nM
O=P(O)(O)Cc1ccccn1 [Compound 3]				4100 nM		2300 nM	3300 nM	Ki against TgDXR, in words (TgDXR): low μM range
CC(=O)N(O)CCC(c1ccncc1)P(=O)(O)O (stereo not drawn) [SYC-409]	essentially no cytotoxicity	essentially no cytotoxicity	essentially no cytotoxicity	530 nM		82 nM		Ki (EcDXR [1]; [7]): 82 nM; Ki (PfDXR [2]; [8]): 13 nM; IC50 (P. falciparum 3D7 strain; [9]): 630 nM; IC50 (P. falciparum Dd2 strain; [10]): 460 nM
CC(=O)N(O)CCCP(=O)(O)O [FR900098]				48 nM	48 nM		11 nM	Ki (EcDXR [3]; Table 2, data from literature (footnote a)): 19 nM
gentamicin								MIC50 (inhibits 50% of P. aeruginosa isolates) (P. aeruginosa isolates): 12.5 µg/mL
CC(=O)N(O)CCC(c1ccc(Cl)c(Cl)c1)P(=O)(O)O (stereo not drawn) [Compound 11]				220 nM		36 nM	25 nM	
O=CN(O)CCCP(=O)(O)O [Fosmidomycin]					90 nM			IC50 (P. falciparum 3D7 strain; [12]): 1170 nM; IC50 (P. falciparum Dd2 strain; [13]): 440 nM; activity on T. gondii parasite (T. gondii): no activity; killing of T. gondii expressing GlpT [5]: can effectively kill; MIC50 (inhibits 50% of P. aeruginosa isolates) (P. aeruginosa isolates): 6.25 µg/mL; half life in plasma [6]: 30 to 90 min; half life in plasma ([6]; listed as 1): ~60 min; oral availability [6]: low; oral availability ([6]; listed as 1): poor
